Measured values from the NIST ThermoML archive (doi:10.1021/je900614f).
± gives the expanded uncertainty stated by the source.

Conditions: Crystal; visual observation

## CCOc1ccc(NC(C)=O)cc1 [N-(4-ethoxyphenyl)ethanamide]
  Triple point temperature: 407 ± 1 K
